Data on six compounds can be found in patent US9458101B2 (priority 2009, dated 2016).

Data set [1] concerns A549 (Human lung carcinoma). As to the kind of experiment: Cytotoxicity testing (MTS) on A549. It counts as cell-based. As for the experimental part:
(§1) Cell lines used were A549 (Human lung carcinoma), HeLa (Human cervical carcinoma), MCF-7 (Human mammary gland adenocarcinoma), CEM (Human T-lymphoblastoid from ALL (Acute lymphoblastic leukemia)), M010B (Human glioma), M006X (Human glioma) and Jurkat (Human T-cell leukemia).
(§2) A series of dilutions were prepared and a wavelength scan of the diluted solution was used to determine the wavelength of maximum absorbance for each compound. Five standardized drug concentrations were scanned at this pre-determined wavelength to obtain an estimate of the compound's extinction coefficient.
(§3) A primary MTS assay was used to test the optimal number of cells for cytotoxicity assays. Cells were trypsinized, counted and introduced into seven lanes of a 96-well plate at different cell numbers (eight replicates per lane). Optimal cell numbers were determined after 72 and 96 hours of growth and were used in subsequent cytotoxicity assays. […] Cell viability was determined using the Cell Titer 96 AQueous One Solution Cell Proliferation Assay (Promega, U.S.A.).
(§4) Fits were performed using a dose-response model ideal for data showing an initial response plateau, a transition region, and a final response plateau.
(§5) [formula] […] Itop is the response obtained at very low/no drug concentration. The data and all parameters were normalized to Itop−Ibot, a measure of the maximum effect of the drug.

The subject of data set [2] is CEM (Human T-lymphoblastoid from ALL). As to the kind of experiment: Cytotoxicity testing (MTS) on CEM. The format is cell-based. As for the experimental part:
as §1, §2, §3, §4, §5

For data set [3], the system named is MCF-7 (Human mammary gland adenocarcinoma). The data set can be described thus: Cytotoxicity testing (MTS) on MCF-7. It counts as cell-based. As for the experimental part: as §1, §2, §3, §4, §5
Data set [4] relates to HeLa (Human cervical carcinoma). As to the kind of experiment: Cytotoxicity testing (MTS) on HeLa. It counts as cell-based. As for the experimental part:
as §1, §2, §3, §4, §5

The subject of data set [5] is A549, HeLa, MCF-7 and CEM cell lines. As to the kind of experiment: Cytotoxicity, mean over A549, HeLa, MCF-7 and CEM cell lines. Conditions: for IC50 [log10 M] (mean logIC50): mean over A549, HeLa, MCF-7 and CEM cell lines; for cytotoxicity compared with colchicine: cytotoxicity assays.
Excerpt: as §1, §3, §5
Cytotoxicity screening was performed on a number of cell lines based on the cancer of origin and differing morphologies.

With `COc1cc2c(c(OC(C)=O)c1OC)-c1ccc(OC)c(=O)cc1[C@@H](NC(C)=O)CC2` [Compound 2, N-[(7S)-2,3,10-trimethoxy-1-((methyl)carbonyloxy)-9-oxo-5,6,7,9-tetrahydrobenzo[α]heptalen-7-yl]acetamide], the “Fraction of cells that survive at the highest drug concentrations (Ibot)” value (“Fraction of cells that survive” for short) was 0.283 ± 0.022 in data set [1], 0.027 ± 0.021 in data set [2], 0.424 ± 0.019 in data set [3] and 0.074 ± 0.031 in data set [4]. In addition, the logIC50 in data set [1] is −5.89 ± 0.06 log10 M; in data set [2] it was −6.65 ± 0.08 log10 M; in data set [3] it was −6.32 ± 0.10 log10 M; in data set [4] it was −6.48 ± 0.13 log10 M. The “IC50 [log10 M] (mean logIC50)” value in data set [5] was −6.34 ± 0.09 log10 M.

Take `COc1cc2c(c(O)c1OC)-c1ccc(OC)c(=O)cc1[C@@H](NC(C)=O)CC2` [Compound 3, N-[(7S)-1-hydroxy-2,3,10-trimethoxy-9-oxo-5,6,7,9-tetrahydrobenzo[α]heptalen-7-yl]acetamide]: in data set [1], the “Fraction of cells that survive” value turned out to be 0.235 ± 0.048 and the logIC50 is given as −5.29 ± 0.11 log10 M. In data set [3], the “Fraction of cells that survive” value is 0.518 ± 0.033 and the logIC50 was −5.25 ± 0.10 log10 M.

In the case of `CCC(=O)Oc1c(OC)c(OC)cc2c1-c1ccc(OC)c(=O)cc1[C@@H](NC(C)=O)CC2` [Compound 4, N-[(7S)-1-((ethyl)carbonyloxy)-2,3,10-trimethoxy-9-oxo-5,6,7,9-tetrahydrobenzo[α]heptalen-7-yl]cetamide], the “Fraction of cells that survive” value in data set [1] is reported as 0.332 ± 0.028; in data set [2] it was −0.031 ± 0.049; in data set [3], 0.399 ± 0.021; in data set [4], 0.058 ± 0.048. Besides, the logIC50 in data set [1] is given as −5.07 ± 0.04 log10 M; in data set [2], −5.39 ± 0.11 log10 M; in data set [3] it was −5.23 ± 0.07 log10 M; in data set [4], −5.41 ± 0.13 log10 M. The “IC50 [log10 M] (mean logIC50)” value in data set [5] is −5.27 ± 0.09 log10 M.

Regarding `COc1cc2c(c(OC(C)C)c1OC)-c1ccc(OC)c(=O)cc1[C@@H](NC(C)=O)CC2` [Compound 7, N-[(7S)-1-(ethoxy-1-methyl)-2,3,10-trimethoxy-9-oxo-5,6,7,9-tetrahydrobenzo[α]heptalen-7-yl]acetamide], the “Fraction of cells that survive” value in data set [1] amounted to 0.229 ± 0.014; in data set [2], 0.000 ± 0.014; in data set [3], 0.464 ± 0.009; in data set [4], 0.066 ± 0.022. Further, the logIC50 in data set [1] is −7.66 ± 0.08 log10 M; in data set [2], −8.49 ± 0.10 log10 M; in data set [3], −8.10 ± 0.05 log10 M; in data set [4] it was −8.25 ± 0.09 log10 M. The “average IC50 values compared with colchicine” value in data set [5] (average values of Table 3) was “stronger than colchicine”. In addition, in data set [5], the “cytotoxicity compared with colchicine” value is on record as “moderately better than colchicine”. Besides, the “IC50 [log10 M] (mean logIC50)” value in data set [5] was −8.12 ± 0.08 log10 M.

Take `COc1c(O)cc2c(c1OC)-c1ccc(SC)c(=O)cc1[C@@H](NC(C)=O)CC2` [Compound 40, N-[(7S)-3-hydroxy-1,2-dimethoxy-3-hydroxy-10-methylsulfanyl-9-oxo-5,6,7,9-tetrahydrobenzo[α]heptalen-7-yl]acetamide]: the “cytotoxicity compared with colchicine” value in data set [5] is reported as “consistently the most effective”.

On to `COc1c(O)cc2c(c1OC)-c1ccc(OC)c(=O)cc1[C@@H](NC(C)=O)CC2` [Compound 50], for which, in data set [5], the “cytotoxicity compared with colchicine” value is “consistently the most effective”.
